Data set [1] relates to Serratia marcescens. Description: Antimicrobial activity against Serratia marcescens at 100 ug/disk by paper disk antibiotic sensitivity assay. Format: functional.
Data set [2] deals with Bacillus subtilis. Nature of the data set: Antimicrobial activity against Bacillus subtilis at 50 ug/disk by paper disk antibiotic sensitivity assay. To be noted: read-out: IZ. Format: functional.
The test system of data set [3] is Escherichia coli. Description: Antimicrobial activity against Escherichia coli at 100 ug/disk by paper disk antibiotic sensitivity assay. Format: functional, organism-based.
For data set [4], the system named is Candida albicans. Nature of the data set: Antimicrobial activity against Candida albicans at 100 ug/disk by paper disk antibiotic sensitivity assay. Format: functional, organism-based.
In data set [5] the test system is Bacillus subtilis. Nature of the data set: Antimicrobial activity against Bacillus subtilis at 25 ug/disk by paper disk antibiotic sensitivity assay. Format: functional. To be noted: read-out: IZ.
Data set [6] deals with Bacillus subtilis. Description: Antimicrobial activity against Bacillus subtilis at 100 ug/disk by paper disk antibiotic sensitivity assay. Format: functional. The following applies: read-out: IZ.
The subject of data set [7] is Staphylococcus aureus. Description: Antimicrobial activity against Staphylococcus aureus at 100 ug/disk by paper disk antibiotic sensitivity assay. Type of data set: functional. To be noted: read-out: IZ.
Data set [8] deals with Carassius auratus. Description: Toxicity in goldfish at 10 ug/ml. Format: organism-based. To be noted: in vivo.
Data set [9] relates to Pseudomonas aeruginosa. Nature of the data set: Antimicrobial activity against Pseudomonas aeruginosa at 100 ug/disk by paper disk antibiotic sensitivity assay. Format: functional.
The subject of data set [10] is Staphylococcus aureus. Nature of the data set: Antimicrobial activity against Staphylococcus aureus at 50 ug/disk by paper disk antibiotic sensitivity assay. Type of data set: functional. The following applies: read-out: IZ.
The test system of data set [11] is KB. Description: Cytotoxicity against human KB cells. Type of data set: functional. To be noted: read-out: ID50 (the source's name).
In data set [12] the test system is Serratia marcescens. Description: Antimicrobial activity against Serratia marcescens at 200 ug/disk by paper disk antibiotic sensitivity assay. Format: functional. The following applies: read-out: IZ.
In data set [13] the test system is Staphylococcus aureus. Nature of the data set: Antimicrobial activity against Staphylococcus aureus at 25 ug/disk by paper disk antibiotic sensitivity assay. The following applies: read-out: IZ. Type of data set: functional.
Data set [14] deals with Escherichia coli. Nature of the data set: Antimicrobial activity against Escherichia coli at 200 ug/disk by paper disk antibiotic sensitivity assay. The following applies: read-out: IZ. Format: functional.
Data set [15] concerns Pseudomonas aeruginosa. Nature of the data set: Antimicrobial activity against Pseudomonas aeruginosa at 200 ug/disk by paper disk antibiotic sensitivity assay. To be noted: read-out: IZ. Format: functional.
Data set [16] relates to Candida albicans. Nature of the data set: Antimicrobial activity against Candida albicans at 200 ug/disk by paper disk antibiotic sensitivity assay. Type of data set: functional. The following applies: read-out: IZ.

Converted amounts (≈) assume the structure as drawn. The source made the active and inactive calls. The calls are words filed in the database; no cut-off is given here.

For `OCc1cc(O)c(O)c(Br)c1Cc1cc(O)c(O)c(Br)c1`, the “inhibition zone (IZ)” value in [1], in data set [3], in data set [4] and in data set [9] was “inactive” in each case. Further, in data set [2], the zone of inhibition at 50 µg/disc was found to be 10 mm. Also, the zone of inhibition at 25 µg/disc in data set [5] amounted to 9 mm. The zone of inhibition at 100 µg/disc in [6] stood at 11 mm; in data set [7], 10 mm. The Activity entry in data set [8] is “Non-toxic”.

Regarding `OCc1cc(Br)c(O)c(O)c1Cc1ccc(O)c(Br)c1` [AVRAINVILLEOL], the zone of inhibition at 50 µg/disc in data set [10] and in [2] was 12 mm in each case. Further, the “inhibition zone (IZ)” value in data set [3], in data set [4] and in data set [9] was “inactive” throughout. Moreover, the IC50 in data set [11] was found to be 10 µg/mL (≈ 24.7 µM). The zone of inhibition at 25 µg/disc in [5] came to 9 mm; in [13], 10 mm. The zone of inhibition at 100 µg/disc in data set [6] turned out to be 14 mm; in [7], 16 mm. Besides, the zone of inhibition at 200 µg/disc in data set [12] was found to be 9 mm. Further, the Activity entry in [8] is given as “Non-toxic”.

As to `OCc1cc(O)c(O)c(Br)c1`, the zone of inhibition at 50 µg/disc was 11 mm in [10] and 10 mm in data set [2]. Also, the zone of inhibition at 100 µg/disc in [1] (read-out: IZ) was determined as 9 mm; in [6], 12 mm; in data set [7], 13 mm; in [9] (read-out: IZ) it was 8 mm. Besides, in [11], the IC50 came to 8.9 µg/mL (≈ 40.6 µM). For the same molecule, the zone of inhibition at 200 µg/disc in data set [14] was 10 mm; in data set [12], 13 mm; in data set [15], 9 mm; in data set [16], 8 mm. Further, the zone of inhibition at 25 µg/disc in data set [5] and in data set [13] was 8 mm throughout. In addition, the Activity result in data set [8] was “Non-toxic”.
